Read-outs that look alike come from different tables or passages of the source. Marks after values point to notes of the source that are not given here. Blank lines part the entries; values can stand above or below the molecule they belong to.
Tests used:
AgOR8/Orco = details: ref 33; cited from earlier work
DOr85b/Orco = DOr85b/Orco (Drosophila melanogaster, UniProt Q9VHQ7); details: cited from earlier work
OBP proteins = details: ref 41; cited from earlier work
OR71a [1] = target: T1, OR71a (Drosophila melanogaster, UniProt Q9VUK5); experiment: EIS sensor, Or71a liposomes on gold electrode, optimized conditions (Example 5); type: binding; details: EIS
T1 sequence (Q9VUK5 1-378): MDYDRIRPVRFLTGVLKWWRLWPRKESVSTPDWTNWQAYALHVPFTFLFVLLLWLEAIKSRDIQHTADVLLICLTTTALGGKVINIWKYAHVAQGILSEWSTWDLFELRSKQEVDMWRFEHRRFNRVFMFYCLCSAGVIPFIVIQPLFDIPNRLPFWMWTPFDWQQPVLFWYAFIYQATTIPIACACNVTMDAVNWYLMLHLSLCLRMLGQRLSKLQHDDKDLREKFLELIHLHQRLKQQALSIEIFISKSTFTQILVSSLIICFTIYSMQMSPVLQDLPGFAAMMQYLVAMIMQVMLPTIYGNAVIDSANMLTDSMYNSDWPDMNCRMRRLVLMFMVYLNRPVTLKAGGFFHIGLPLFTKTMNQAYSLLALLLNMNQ

OR71a [2] = target: T1, OR71a; experiment: CNT-FET sensor covalently functionalized with Or71a nanodiscs (Example 3); type: binding
Description: The dispersion was sonicated until a clear solution was obtained. The temperature was kept at 25° C. throughout the sonication process. The thiolpyridine solution was prepared by dissolving 10 mg of 2-Mercaptopyridine (99%, Sigma Aldrich) in 1 ml of methanol. The solution was spun coated on a polydimethylsiloxane (PDMS) surface at 2000 rpm for one minute. Before the spin coating process, the PDMS surface was cleaned by a 50 W Oxygen plasma for 1 minute to improve the wettability. The cleaned substrates were placed upside down on the PDMS surface for three minutes and washed in ethanol to remove the excess thiolpyridine molecules. Then the substrates were transferred into the CNT suspension and immersed into the suspension for 10 minutes. The samples were removed from the suspension and dipped into Ethanol for another 10 minutes to remove the thiolpyridine molecules in the SWNT network. The alignment markers were deposited by defining the markers by photolithography and thermal evaporation of 5 nm Chromium and 50 nm of Gold. The metal Lift off was done by acetone immersion for 15 minutes followed by an Isopropyl alcohol (IPA) wash and N2 blow dry. The result is a uniform thin film CNT network covering the entire substrate surface. The purification procedure is a variation on the one detailed in […] et al. 2013^14. […] Purity was assessed on Coomassie stained SDS-PAGE gels and Western blotting. […]

AgOR1/Orco = target: T2, AgOR1/Orco (Anopheles gambiae, UniProt Q8WTE7); details: ref 33; cited from earlier work
T2 construct: host or cells: Xenopus oocytes
T2 sequence (Q8WTE7 whole entry): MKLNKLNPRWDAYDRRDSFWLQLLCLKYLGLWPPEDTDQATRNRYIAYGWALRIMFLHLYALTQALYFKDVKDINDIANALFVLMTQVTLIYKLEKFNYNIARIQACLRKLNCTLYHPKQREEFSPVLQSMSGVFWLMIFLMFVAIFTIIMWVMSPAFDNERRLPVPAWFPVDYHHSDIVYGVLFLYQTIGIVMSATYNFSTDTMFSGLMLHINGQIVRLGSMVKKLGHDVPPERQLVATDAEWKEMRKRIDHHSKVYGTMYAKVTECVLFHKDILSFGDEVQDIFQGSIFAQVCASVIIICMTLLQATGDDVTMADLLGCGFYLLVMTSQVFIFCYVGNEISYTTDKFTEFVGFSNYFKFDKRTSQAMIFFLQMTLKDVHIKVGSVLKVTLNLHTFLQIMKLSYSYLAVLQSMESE
T2 sequence (Q7QCC7 whole entry partner): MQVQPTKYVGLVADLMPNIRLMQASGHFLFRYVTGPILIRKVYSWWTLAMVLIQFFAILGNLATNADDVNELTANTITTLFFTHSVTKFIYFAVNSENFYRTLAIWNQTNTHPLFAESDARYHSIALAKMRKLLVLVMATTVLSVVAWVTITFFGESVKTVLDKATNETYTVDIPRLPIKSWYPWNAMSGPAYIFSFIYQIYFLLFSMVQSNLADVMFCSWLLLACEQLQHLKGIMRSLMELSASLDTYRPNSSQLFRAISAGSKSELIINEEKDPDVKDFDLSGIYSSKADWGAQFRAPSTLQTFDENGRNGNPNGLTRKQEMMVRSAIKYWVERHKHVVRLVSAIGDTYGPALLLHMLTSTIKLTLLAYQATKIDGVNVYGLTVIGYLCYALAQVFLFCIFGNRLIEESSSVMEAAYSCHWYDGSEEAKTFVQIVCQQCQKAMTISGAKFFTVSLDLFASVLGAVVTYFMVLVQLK

ApolOR1/Orco = details: +ApolPBP2; estimated visually from graph; cited from earlier work
BmOR3/Orco [3] = details: cited from earlier work
BmOR3/Orco [4] = details: ref 13; cited from earlier work
BmOR1/Orco [5] = details: cited from earlier work
BmOr1/Orco [6] = details: cited from earlier work
BmOR1/Ocro = details: ref 13; cited from earlier work
EpOR3/Orco [7] = details: estimated visually from graph; cited from earlier work
ECB (Z) OR3/Orco = details: ref 2; cited from earlier work
OscaOR1/Orco = details: cited from earlier work
OnOr1/Orco = details: ref 32; cited from earlier work
DiOR1/Orco = details: cited from earlier work
SexiOR13/Orco = details: ref 26; cited from earlier work
SexiOR16/Orco = details: ref 26; cited from earlier work
HVOR6/Orco = details: ref 31; cited from earlier work
MsiOR1/Orco = details: cited from earlier work
HVOR13/Orco = details: ref 31; cited from earlier work
PxOR1/Orco = details: cited from earlier work
BmOr45/Orco = details: cited from earlier work
BmOr47/Orco = details: cited from earlier work
DmOr22a/Orco = DmOr22a/Orco (Drosophila melanogaster, UniProt P81909); details: cited from earlier work
Chain of DmOr22a/Orco (P81909 whole entry): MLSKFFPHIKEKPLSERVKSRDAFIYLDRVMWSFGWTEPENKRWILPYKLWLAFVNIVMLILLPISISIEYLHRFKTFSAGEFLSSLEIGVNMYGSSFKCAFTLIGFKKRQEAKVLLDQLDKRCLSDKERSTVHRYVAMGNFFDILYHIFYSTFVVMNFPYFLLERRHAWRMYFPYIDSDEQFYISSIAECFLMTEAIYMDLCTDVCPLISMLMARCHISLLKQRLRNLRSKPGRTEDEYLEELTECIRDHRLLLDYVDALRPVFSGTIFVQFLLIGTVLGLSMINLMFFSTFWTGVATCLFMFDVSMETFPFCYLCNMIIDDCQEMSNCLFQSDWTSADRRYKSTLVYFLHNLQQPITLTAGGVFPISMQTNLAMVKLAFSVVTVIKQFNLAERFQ

AgOr65/Orco [8] = details: ref 33; cited from earlier work
AgOr65/Orco [9] = details: given as Log, cited from earlier work
AgOr48/Orco = details: given as Log, cited from earlier work
EpOR1/Orco = details: cited from earlier work
BdorOBP2 = details: ref 39; cited from earlier work
EpOR3/Orco [10] = details: ref 19; cited from earlier work
AgOR2/Orco = target: T3, AgOR2/Orco (Anopheles gambiae, UniProt Q8WTE6); details: ref 33; cited from earlier work
T3 construct: host or cells: Xenopus oocytes
T3 sequence (Q8WTE6 whole entry): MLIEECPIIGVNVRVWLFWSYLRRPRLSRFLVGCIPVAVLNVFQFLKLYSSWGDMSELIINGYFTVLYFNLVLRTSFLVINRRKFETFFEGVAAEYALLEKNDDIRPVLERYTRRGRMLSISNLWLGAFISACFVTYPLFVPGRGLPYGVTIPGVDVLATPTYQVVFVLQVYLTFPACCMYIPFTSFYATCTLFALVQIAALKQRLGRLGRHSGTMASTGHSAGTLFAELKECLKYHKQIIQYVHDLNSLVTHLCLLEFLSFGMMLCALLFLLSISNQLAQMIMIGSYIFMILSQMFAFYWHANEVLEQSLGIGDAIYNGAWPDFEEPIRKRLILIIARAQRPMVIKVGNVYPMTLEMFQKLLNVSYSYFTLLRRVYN
T3 sequence (Q7QCC7 whole entry partner): as the sequence (Q7QCC7 whole entry partner) above

AgOr10/Orco = details: ref 33; cited from earlier work
BmOr19/Orco = details: cited from earlier work

Chain of DOr85b/Orco (Q9VHQ7 whole entry): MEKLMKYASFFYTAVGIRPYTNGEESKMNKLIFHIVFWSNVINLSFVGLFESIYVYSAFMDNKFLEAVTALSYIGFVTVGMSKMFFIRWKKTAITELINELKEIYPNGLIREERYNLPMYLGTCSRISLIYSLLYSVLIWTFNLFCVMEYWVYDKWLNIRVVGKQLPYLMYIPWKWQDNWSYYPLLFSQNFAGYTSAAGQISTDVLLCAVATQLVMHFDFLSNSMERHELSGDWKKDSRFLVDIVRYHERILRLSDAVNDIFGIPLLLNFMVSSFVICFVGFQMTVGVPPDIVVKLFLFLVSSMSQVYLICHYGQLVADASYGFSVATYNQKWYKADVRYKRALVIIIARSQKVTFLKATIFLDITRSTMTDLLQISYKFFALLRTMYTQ
Chain of DOr85b/Orco (Q9VNB5 whole entry partner): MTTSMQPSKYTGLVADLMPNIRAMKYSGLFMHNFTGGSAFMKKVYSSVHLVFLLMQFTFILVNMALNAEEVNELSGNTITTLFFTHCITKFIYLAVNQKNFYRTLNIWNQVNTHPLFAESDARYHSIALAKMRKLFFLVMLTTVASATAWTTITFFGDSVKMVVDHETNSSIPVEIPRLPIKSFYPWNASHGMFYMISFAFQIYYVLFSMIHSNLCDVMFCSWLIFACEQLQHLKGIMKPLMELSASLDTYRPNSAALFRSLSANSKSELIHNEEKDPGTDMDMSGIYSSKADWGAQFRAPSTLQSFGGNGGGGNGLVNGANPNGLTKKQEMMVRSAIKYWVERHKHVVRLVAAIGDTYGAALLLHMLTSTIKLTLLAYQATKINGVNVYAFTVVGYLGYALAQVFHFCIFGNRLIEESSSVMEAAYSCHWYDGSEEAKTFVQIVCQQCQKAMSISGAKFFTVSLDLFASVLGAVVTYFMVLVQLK

SMILES: C=CC(O)CCCCC (stereo not shown) [1-octen-3-ol]
EC50 (AgOR8/Orco): 186 nM

SMILES: CCCCCC(C)=O [2-heptanone]
Sensitivity limit (DOr85b/Orco; estimated visually from graph): 10^−8 − 10^−6 M* | EC50 (DOr85b/Orco; ref 12): 45600 nM | concentration that could be detected (OBP proteins): 0.018 M

LOD (OR71a [1]): 0.1 fM | limit of detection (OR71a [2]; nanodiscs 1:100 dilution): below 1 fM | concentration at which clear electronic response starts (OR71a [2]; real time current measurement mode): 1 fM
SMILES: CCc1ccc(OC)c(O)c1 [4-ethyl guaiacol]

SMILES: Cc1ccc(O)cc1 [4-methylphenol]
EC50 (AgOR1/Orco): 412 nM

SMILES: CCCC/C=C\CCC/C=C/CCCCC=O [(E,Z) -6,11-hexadecadienal]
Sensitivity limit (ApolOR1/Orco): 10^−15 M*

SMILES: CCC/C=C\C=C\CCCCCCCCC=O [Bombykal]
Sensitivity limit (BmOR3/Orco [3]; estimated visually from graph): 10^−8 − 10^−6 M* | EC50 (BmOR3/Orco [3]; ref 12): 380 nM | EC50 (BmOR3/Orco [4]): 2030 nM | Sensitivity limit (BmOR3/Orco [4]): 300 nM

SMILES: CCC/C=C\C=C\CCCCCCCCCO [Bombykol]
Sensitivity limit (BmOR1/Orco [5]; estimated visually from graph): 10^−8 − 10^−6 M* | EC50 (BmOR1/Orco [5]; ref 12): 250 nM | EC50 (BmOr1/Orco [6]; ref 29): 34000 nM | EC50 (BmOr1/Orco [6]; ref 30): 5900 nM | EC50 (BmOR1/Ocro): 4390 nM | Sensitivity limit (BmOR1/Ocro): 1000 nM

SMILES: CC(C)=CCCC(C)=CC=O [Citral]
Sensitivity limit (EpOR3/Orco [7]): 10^−15 M*

SMILES: CC/C=C/CCCCCCCCCCOC(C)=O [E11 pheromone]
EC50 (ECB (Z) OR3/Orco): 12.5 nM | Sensitivity limit (ECB (Z) OR3/Orco): 10^−9 M^

SMILES: CC/C=C/CCCCCCCCCCO [E11-14:OH]
Sensitivity limit (OscaOR1/Orco; estimated visually from graph): 10^−7 M* | EC50 (OscaOR1/Orco; ref 27): 1000 nM

SMILES: C/C=C/CCCCCCCCCCCOC(C)=O [E12-14:OAc]
EC50 (OnOr1/Orco): 260 nM

SMILES: CCCC/C=C/CCCCCCCCCC=O [EII-16:Ald]
Sensitivity limit (DiOR1/Orco; estimated visually from graph): 10^−7 M* | EC50 (DiOR1/Orco; ref 28): 1000 nM

SMILES: C/C=C/C/C=C\CCCCCCCCOC(C)=O [Z9, E12-14:OAc]
EC50 (SexiOR13/Orco): 3160 nM

SMILES: CCCC/C=C\CCCCCCCCO [Z9-14:OH]
EC50 (SexiOR16/Orco): 969 nM

SMILES: CCCC/C=C\CCCCCCCC=O [Z9-14:ald]
EC50 (HVOR6/Orco): 979 nM

SMILES: CCCC/C=C\CCCCCCCCCCOC(C)=O [Z11-16:Ac]
Sensitivity limit (MsiOR1/Orco; estimated visually from graph): 10^−7 M* | EC50 (MsiOR1/Orco; ref 28): 1000 nM

SMILES: CCCC/C=C\CCCCCCCCCC=O [Z11-16:Ald]
EC50 (HVOR13/Orco): 979 nM | Sensitivity limit (PxOR1/Orco; estimated visually from graph): 10^−8 − 10^−6 M* | EC50 (PxOR1/Orco; ref 12): 2520 nM

SMILES: O=C(O)c1ccccc1 [benzoic acid]
Sensitivity limit (BmOr45/Orco; estimated visually from graph): 10^−11 M* | EC50 (BmOr45/Orco; ref 18): 0.144 nM | Sensitivity limit (BmOr47/Orco; estimated visually from graph): 10^−14 M* | EC50 (BmOr47/Orco; ref 18): 0.0142 nM

SMILES: CCCC(=O)OCC [ethyl butyrate]
Sensitivity limit (DmOr22a/Orco; estimated visually from graph): 10^−12 M* | EC50 (DmOr22a/Orco; ref 3): 0.0158 nM

SMILES: C=CCc1ccc(O)c(OC)c1 [eugenol]
EC50 (AgOr65/Orco [8]): 34.4 nM | Ec50 (Log) (AgOr65/Orco [9]): Log = −6.54 | Sensitivity limit (Log) (AgOr65/Orco [9]; ref 23, estimated visually from graph): Log = −7*

SMILES: CCCCCCCCC1CCC(=O)O1 (stereo not shown) [g-dodecalactone]
Ec50 (Log) (AgOr48/Orco): Log = −7.01 | Sensitivity limit (Log) (AgOr48/Orco; ref 25, estimated visually from graph): Log = −8*

SMILES: CC(C)=CCC/C(C)=C/CO [geraniol]
Sensitivity limit (EpOR1/Orco; estimated visually from graph): 10^−14 M* | EC50 (EpOR1/Orco; ref 17): 0.0018 nM | detection limit (BdorOBP2): ~10^−6 M

SMILES: CC(=O)OC/C=C(\C)CCC=C(C)C [geranyl acetate]
EC50 (EpOR3/Orco [10]): 1000 nM

SMILES: c1ccc2[nH]ccc2c1 [indole]
EC50 (AgOR2/Orco): 16.7 nM | EC50 (AgOr10/Orco): 137 nM

SMILES: C=CC(C)(O)CCC=C(C)C (stereo not shown) [linalool]
detection limit (BdorOBP2): ~10^−6 M | Sensitivity limit (BmOr19/Orco; estimated visually from graph): 10^−10 M* | EC50 (BmOr19/Orco; ref 18): 4.69 nM

— US12044651B2, “Sensor device and methods” (SCENTIAN BIO LIMITED, priority 2016, dated 2024)
